Experimental data published in patent US8530636B2, “Method for regulating protein function in cells in vivo using synthetic small molecules” (priority 2008, dated 2013).
Where two headings read alike, the source gives them in different places.

System: HCT116 tumors

Substance: 1-[2-(3,4,5-trimethoxy-phenyl)-butyryl]-piperazine-2-carboxylic acid 3-(3,4-dimethoxy-phenyl)-1-[3-(2-morpholin-4-yl-ethoxy)-phenyl]-propyl ester [Shield1]
- Virus in the tumor (viral luciferase expression) (Shield1 delayed until 3 days following virus): equivalent to those observed in animals treated with virus alone
- Virus in the tumor (viral luciferase expression) (Shield1 started prior to virus delivery): only modest levels of virus
- Adverse physiological effects (mouse, in vivo): no adverse physiological effects observed
- Tumor burden compared to virus alone (mouse, in vivo): significantly decreased tumor burden
- Tumor responses (mouse, in vivo): Seven of the eight animals demonstrated complete and durable responses
- Tumor burden, Shield1 alone (no virus): no effect on tumor burden
